Data published in patent publication US6927230B2, “Triazole derivatives” (Fujisawa Pharmaceutical Co., Ltd., priority 2001, dated 2005).
Read-outs that look alike come from different tables or passages of the source.

How the values were obtained:
COX-I = target: T1, COX-I (Homo sapiens, UniProt P23219); assay: Whole blood assay for COX-I (TXB2 production); format: cell-based
T1 construct: Fresh blood was collected by syringe without anticoagulants from volunteers with consent; from tissue; host or cells: fresh human whole blood from volunteers, no anticoagulant, allowed to clot
Procedure: Fresh blood was collected by syringe without anticoagulants from volunteers with consent. The subjects had no apparent inflammatory conditions and had not taken any medication for at least 7 days prior to blood collection. 500 μl aliquots of human whole blood were immediately incubated with 2 μl of either DMSO vehicle or a test compound at final concentrations for 1 hr at 37 C. to allow the blood to clot. Appropriate treatments (no incubation) were used as blanks. At the end of the incubation, 5 μl of 250 mM Indomethacin was added to stop the reaction. The blood was centrifuged at 6000×g for 5 min at 4 C to obtain serum. A 100 μl aliquot of serum was mixed with 400 μl methanol for protein precipitation. The supernatant was obtained by centrifuging at 6000×g for 5 min at 4 C and was assayed for TXB2 using an enzyme immunoassay kit according to the manufacturer's procedure. For a test compound, the results were expressed as percent inhibition of TXB2 production relative to control incubations containing DMSO vehicle. The data were analyzed by that a test compound at the indicated concentrations was changed log value and was applied simple linear regression. IC50 value was calculated by least squares method.

platelet aggregation = assay: Inhibiting activity on aggregation of platelet (collagen-induced, platelet-rich plasma); format: cell-based; conditions: human platelet-rich plasma, collagen 0.5 μg/mL as agonist; read-out: IC50 (inhibition of platelet aggregation)
Procedure: Blood from healthy human volunteers was collected into plastic vessels containing 3.8% sodium citrate (1/10 volume). The subject had no taken any compounds for at least seven days prior to blood collection. Platelet-rich plasma was obtained from the supernatant fraction of blood after centrifugation at 1200 r.p.m. for 10 min. Platelet-poor plasma was obtained by centrifugation of the remaining blood at 3000 r.p.m. for 10 min.
Platelet aggregation was measured according to the turbidimetric method with an aggregometer (Hema Tracer). In the cuvette, platelet-rich plasma was pre-incubated for 2 min at 37 C after the addition of compounds or vehicle. In order to quantify the inhibitory effects of each compound, the maximum increase in light transmission was determined from the aggregation curve for 7 min after the addition of agonist. We used collagen as agonist of platelet aggregation in this study. The final concentration of collagen was 0.5 μg/mL. The effect of each compound was expressed as percentage inhibition agonist-induced platelet aggregation compared with vehicle treatment. Data are presented as the mean±S.E.M. for six experiments. The IC50 value was obtained by linear regression, and is expressed as the compound concentration required to produce 50% inhibition of agonist-induced platelet aggregation in comparison to vehicle treatment.

COX-II = target: T2, COX-II (Homo sapiens, UniProt P35354); assay: Whole blood assay for COX-II (LPS-induced PGE2 production); format: cell-based
T2 construct: lipopolysaccharide for 24 hr at 37 C for induction of COX-2; from tissue; host or cells: fresh heparinized human whole blood from volunteers, LPS-stimulated for 24 hr
T2 sequence (P35354 18-604): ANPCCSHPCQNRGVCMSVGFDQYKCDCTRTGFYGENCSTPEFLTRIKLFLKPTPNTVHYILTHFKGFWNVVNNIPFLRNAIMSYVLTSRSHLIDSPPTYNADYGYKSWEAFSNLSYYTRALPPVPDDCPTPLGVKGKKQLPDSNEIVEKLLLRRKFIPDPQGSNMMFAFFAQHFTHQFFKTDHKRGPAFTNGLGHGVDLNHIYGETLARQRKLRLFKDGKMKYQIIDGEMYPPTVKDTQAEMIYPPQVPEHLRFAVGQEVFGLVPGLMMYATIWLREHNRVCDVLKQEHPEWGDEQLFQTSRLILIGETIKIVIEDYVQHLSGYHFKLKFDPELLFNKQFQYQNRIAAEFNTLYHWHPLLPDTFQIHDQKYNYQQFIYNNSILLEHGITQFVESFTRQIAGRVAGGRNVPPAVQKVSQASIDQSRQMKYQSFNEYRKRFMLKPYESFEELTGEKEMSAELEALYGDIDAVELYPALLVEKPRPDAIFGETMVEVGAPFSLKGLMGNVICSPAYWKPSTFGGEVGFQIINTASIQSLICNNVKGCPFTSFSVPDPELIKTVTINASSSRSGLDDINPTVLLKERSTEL
Procedure: Fresh blood was collected in heparinized tubes by syringe from volunteers with consent. The subjects had no apparent inflammatory conditions and had not taken any medication for at least 7 days prior to blood collection. 500 μl aliquots of human whole blood were incubated with either 2 μl DMSO vehicle or 2 μl of a test compound at final concentrations for 15 min at 37 C This was followed by incubation of the blood with 10 μl of 5 mg/ml lipopolysaccharide for 24 hr at 37 C for induction of COX-2. Appropriate PBS treatments (no LPS) were used as blanks. At the end of the incubation, the blood was centrifuged at 6000×g for 5 min at 4 C to obtain plasma. A 100 μl aliquot of plasma was mixed with 400 μl methanol for protein precipitation. The supernatant was obtained by centrifuging at 6000×g for 5 min at 4 C and was assayed for PGE2 using a radioimmunoassay kit after conversion of PGE2 to its methyl oximate derivative according to the manufacturer's procedure. For a test compound, the results were expressed as percent inhibition of PGE2 production relative to control incubations containing DMSO vehicle. The data were analyzed by that a test compound at the indicated concentrations was changed log value and was applied simple linear regression. IC50 value was calculated by least squares method.

[1] = system: adjuvant arthritis in Lewis rats; assay: Analgesic activity: effect on adjuvant arthritis in rats (Randall-Selitto pain threshold); format: in vivo, rat; conditions: dose 3.2 mg/kg; ratio of mechanical pain threshold of treated vs non-treated arthritic rats, 2 hr after administration; ratio of 1.5 = effective dose
[2] = human whole blood, 1 hr at 37 C, TXB2 production, read-out: COX-I IC50
[3] = human whole blood, LPS 24 hr at 37 C, PGE2 production, read-out: COX-II IC50

T1 sequence (P23219 24-599): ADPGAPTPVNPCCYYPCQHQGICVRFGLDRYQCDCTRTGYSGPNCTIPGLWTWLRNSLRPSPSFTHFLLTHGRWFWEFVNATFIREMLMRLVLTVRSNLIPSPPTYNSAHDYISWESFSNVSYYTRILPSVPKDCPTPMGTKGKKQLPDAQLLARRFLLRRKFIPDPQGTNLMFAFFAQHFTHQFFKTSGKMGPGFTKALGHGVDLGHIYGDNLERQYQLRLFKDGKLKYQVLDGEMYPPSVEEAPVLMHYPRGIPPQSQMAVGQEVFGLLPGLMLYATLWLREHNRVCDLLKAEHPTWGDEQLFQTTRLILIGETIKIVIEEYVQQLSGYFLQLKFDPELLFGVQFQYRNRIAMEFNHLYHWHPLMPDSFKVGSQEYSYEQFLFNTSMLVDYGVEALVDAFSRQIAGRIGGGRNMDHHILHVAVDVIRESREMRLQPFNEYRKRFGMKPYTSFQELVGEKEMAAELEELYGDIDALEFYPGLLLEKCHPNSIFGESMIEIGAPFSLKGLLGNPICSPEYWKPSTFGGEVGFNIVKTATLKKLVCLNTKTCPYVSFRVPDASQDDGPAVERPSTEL

Row | IC50 (COX-I; [2]) | IC50 (platelet aggregation) | IC50 (COX-II; [3]) | melting point | SMILES | The coefficient of analgesic [1] | IC50 (COX-I) | IC50 (COX-II)
1 | < 10 nM | < 20 nM | > 100 nM | 63 to 64 °C | COc1ccc(-c2nc(OCC(F)(F)F)nn2-c2ccc(OC)nc2)cc1 [15-(4), 2-methoxy-5-(5-(4-methoxyphenyl)-3-(2,2,2-trifluoroethoxy)-1H-1,2,4-triazol-1-yl)pyridine] |  |  | 
2 | < 10 nM | < 20 nM | > 100 nM |  | COc1ccc(-c2nc(OC3CCCCC3)nn2-c2ccc(OC)cc2)cc1 [Example 25, 1,5-bis(4-methoxyphenyl)-3-cyclohexyloxy-1H-1,2,4-triazole] | >=1.5 |  | 
3 | < 10 nM |  | > 100 nM |  | COc1ccc(-c2nc(OCc3cscn3)nn2-c2ccc(OC)cc2)cc1 [Example 20, 1,5-bis(4-methoxyphenyl)-3-(1,3-thiazol-4-ylmethoxy)-1H-1,2,4-triazole] |  |  | 
4 | < 10 nM | < 20 nM | > 100 nM |  | COc1ccc(-c2nc(C(F)(F)F)nn2-c2ccc(OC)cc2)cc1 [1(2), 1,5-bis(4-methoxyphenyl)-3-(trifluoromethyl)-1H-1,2,4-triazole] | >=1.5 |  | 
5 |  |  |  | 82 to 83 °C | COc1ccc(-n2nc(OCC(F)(F)F)nc2-c2ccc(OC)nc2)cc1 [14-(3), 2-methoxy-5-(1-(4-methoxyphenyl)-3-(2,2,2-trifluoroethoxy)-1H-1,2,4-triazole-5-yl)pyridine] |  |  | 
6 | < 10 nM |  | > 100 nM |  | COc1ccc(-c2nc(OC(C)C)nn2-c2ccc(OC)cc2)cc1 [Example 23, 1,5-bis(4-methoxyphenyl)-3-(2-propoxy)-1H-1,2,4-triazole] |  |  | 
7 |  | < 20 nM |  |  | COc1ccc(-c2nc(OC)nn2-c2ccc(OC)cc2)cc1 [5(4), 3-Methoxy-1,5-bis(4-methoxyphenyl)-1H-1,2,4-triazole] | >=1.5 |  | 
8 | < 10 nM |  | > 100 nM |  | COc1ccc(-c2nc(OCc3ccc(Cl)cc3)nn2-c2ccc(OC)cc2)cc1 [Example 26, 1,5-bis(4-methoxyphenyl)-3-(4-chlorophenylmethoxy)-1H-1,2,4-triazole] |  |  | 
9 | < 10 nM |  | > 100 nM |  | COc1ccc(-c2nc(S(C)(=O)=O)nn2-c2ccc(OC)cc2)cc1 [6(6), 1,5-bis(4-methoxyphenyl)-3-(methylsulfonyl)-1H-1,2,4-triazole] |  |  | 
10 | < 10 nM | < 20 nM | > 100 nM |  | COc1ccc(-c2nc(OCc3cc(C)on3)nn2-c2ccc(OC)cc2)cc1 [Example 19, 1,5-bis(4-methoxyphenyl)-3-[(5-methyl-3-isoxazolyl)methoxy]-1H-1,2,4-triazole] |  |  | 
11 | < 10 nM |  | > 100 nM | 81 to 82 °C | C#CCOc1nc(-c2ccc(OC)cc2)n(-c2ccc(OC)cc2)n1 [Example 17, 1,5-bis(4-methoxyphenyl)-3-(2-propynyloxy)-1H-1,2,4-triazole] |  |  | 
12 | < 10 nM |  | > 100 nM |  | COc1ccc(-c2nc(OCC(=O)N(C)C)nn2-c2ccc(OC)cc2)cc1 [Example 21, 2-{[1,5-bis(4-methoxyphenyl)-1H-1,2,4-triazol-3-yl]oxy}-N,N-dimethylacetamide] |  |  | 
13 | < 10 nM |  | > 100 nM |  | COc1ccc(-n2nc(C(F)(F)F)nc2-c2ccc(OC)nc2)cc1 [Example 8, 2-methoxy-5-[1-(4-methoxyphenyl)-3-(trifluoromethyl)-1H-1,2,4-triazol-5-yl]pyridine] |  |  | 
14 | < 10 nM |  | > 100 nM |  | COc1ccc(-c2nc(SC)nn2-c2ccc(OC)cc2)cc1 [6(4), 1,5-bis(4-methoxyphenyl)-3-(methylthio)-1H-1,2,4-triazole] |  |  | 
15 | < 10 nM |  | > 100 nM |  | COc1ccc(-c2nc(C(F)(F)F)nn2-c2ccc(OC)nc2)cc1 [12(2), 2-methoxy-5-[5-(4-methoxyphenyl)-3-(trifluoromethyl)-1H-1,2,4-triazol-1-yl]pyridine] |  |  | 

Row | SMILES | IC50 (COX-I; [2]) | IC50 (platelet aggregation) | IC50 (COX-II; [3]) | melting point | The coefficient of analgesic [1] | IC50 (COX-I) | IC50 (COX-II)
16 | COc1ccc(-c2nc(OC(=O)N(C)C)nn2-c2ccc(OC)cc2)cc1 [Example 16, 1,5-bis(4-methoxyphenyl)-1H-1,2,4-triazol-3-yl dimethylcarbamate] |  |  |  | 121 to 123 °C |  | < 10 nM | > 100 nM
